Where two headings read alike, the source gives them in different places.
What was measured:
Format in all cases: cell-based
[1] = biological target: human 5-hydroxytryptamine receptor 2A (5-HT2A) (Homo sapiens, UniProt P28223); assay: Human 5-HT2A functional FLIPR assay (agonist mode); set-up: expressed in transfected cells; host or cells: Flp-In-293 (HEK293); conditions: for RFU@10 μM: normalized fluorescence reading (Fmax−Fmin) at 10 μM, curve fitting with activation (%)
Protocol: The potential excitatory effects of compounds targeting human 5-hydroxytryptamine receptor 2A (5-HT2A) under agonist mode was assessed.
HTR2A&Gα15-HEK293 cells were cultured in DMEM medium containing 10% dialyzed FBS and 1× penicillin-streptomycin, 100 μg/mL Hygromycin B and 300 μg/mL G418. The cells were passaged about three times a week, maintained between ˜30% to ˜90% confluence.
2. For induction, 1 μg/ml tetracycline (final concentration) was added to cell culture medium and incubated for 48 hours prior to seeding cells into plate at 37° C., 5% (v/v) CO2. The cell culture medium was removed from flask. Cells were washed with DP BS.
9. 30 μL/well cell suspensions added into a 384-well cell plate (The cell density was 20,000 cells/well).
10 μL of assay buffer (20 mM HEPES, in 1×HBSS, pH 7.4) was added to each well of the cell plate.
2× dye solution was prepared following the manual of the FLIPR® Calcium 6 Assay Kit: • i. The dye was diluted with assay buffer. • ii. Probenecid was added to the final concentration of 5 mM. • iii. Vortexed vigorously for 1-2 minutes.
4. 10 μL of 2× dye solution was added to each well of the cell plate
(§1) 6. The plate was incubated at 37° C. for 2 hours followed by an additional 15-minute incubation at 25° C.
1. Serotonin HCl was prepared to the concentration of 10 mM with DMSO.
2. The test compounds were prepared to the concentration of 10 mM with DMSO.
4. 3-folds serial dilutions were performed with DMSO.
5. 90 nL/well of serial diluted compounds was transferred from source plate to a 384-well compound plate by using an Echo.
6. 30 μL/well of assay buffer (20 mM HEPES in 1×HBSS, pH 7.4) was added to the compound plate.
2. 10 μL of 3× compounds transferred from the compound plate to the cell plate by FLIPR.
3. The plate was read for 160 sec with 1 sec interval and the data of agonist mode was obtained.
(§2) 1. The normalized fluorescence reading (RFU) was calculated as shown below, wherein Fmax and Fmin stand for maximum and minimum of calcium signal during defined time window:
2. EC50 by fitting RFU against log of compound concentrations with Hill equation was calculated using XLfit.
(§3) 2. 10 μL of assay buffer (20 mM HEPES, in 1×HBSS, pH 7.4) was added to each well of the cell plate.
3. 2× dye solution was prepared following the manual of the FLIPR® Calcium 6 Assay Kit: • i. The dye was diluted with assay buffer. • ii. Probenecid was added to the final concentration of 5 mM. • iii. Vortexed vigorously for 1-2 minutes.
1. The normalized fluorescence reading (RFU) was calculated as shown below, wherein Fmax and Fmin stand for maximum and minimum of calcium signal during defined time window: RFU=Fmax−Fmin

[2] = biological target: T1, human 5-hydroxytryptamine receptor 1A (5-HT1A) (Homo sapiens, UniProt P08908); assay: Human 5-HT1A functional FLIPR assay (agonist mode); set-up: expressed in transfected cells; host or cells: Flp-In CHO; conditions: for RFU@10 μM: normalized fluorescence reading (Fmax−Fmin) at 10 μM, curve fitting with activation (%)
T1 sequence (P08908 1-422): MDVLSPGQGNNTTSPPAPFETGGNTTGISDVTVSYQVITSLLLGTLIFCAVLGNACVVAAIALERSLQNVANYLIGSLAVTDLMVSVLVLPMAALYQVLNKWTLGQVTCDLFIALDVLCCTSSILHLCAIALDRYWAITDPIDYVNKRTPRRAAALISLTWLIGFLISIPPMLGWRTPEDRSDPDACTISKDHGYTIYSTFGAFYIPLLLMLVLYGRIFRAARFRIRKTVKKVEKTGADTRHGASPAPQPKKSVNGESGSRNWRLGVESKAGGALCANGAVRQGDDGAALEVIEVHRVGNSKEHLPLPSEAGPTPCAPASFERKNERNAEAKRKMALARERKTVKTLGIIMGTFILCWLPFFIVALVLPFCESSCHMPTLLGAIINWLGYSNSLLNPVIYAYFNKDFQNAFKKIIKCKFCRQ
Protocol: The potential excitatory effects of compounds targeting on 5-hydroxytryptamine receptor 1A (5-HT1A) under agonist mode was assessed.
HTR1A&Gα15-CHO cells were cultured in DMEM/F12 medium containing 10% dialyzed FBS, 1× penicillin-streptomycin and 600 μg/mL Hygromycin B. The cells were passaged about three times a week, maintained between ˜30% to ˜90% confluence.
8. Cells were diluted to 4×10^5/mL with cell culture medium.
9. 30 μL/well cell suspensions were added into a 384-well cell plate (The cell density was 12,000 cells/well).
as §3
3. 2× dye solution was prepared following the manufacture's instruction of the FLIPR® Calcium 6 assay kit: • i. The dye was diluted with assay buffer. • ii. probenecid was added to the final concentration of 5 mM. • iii. Vortexed vigorously for 1-2 minutes, adjust pH to 7.4.
4. 10 μL of 2× dye solution was added to each well of the cell plate.
as §1
1. Serotonin was prepared to the concentration of 10 mM with DMSO, 3-folds serial dilutions were performed with DMSO.
2. Prepare the test compound to the concentration of 10 mM with DMSO, preform 3-folds serial dilutions with DMSO.
4. 90 nL/well of serial diluted compounds were transferred from source plate to a 384-well compound plate by using an Echo.
5. 30 μL/well of assay buffer was added to the compound plate.
2. 10 μL of 3× compounds were transferred from the compound plate to the cell plate by FLIPR.
3. The plate was read for 160 sec with 1 sec interval to obtain the data of agonist mode.
as §2
2. EC50 was calculated by fitting RFU against log of compound concentrations with Hill equation using XLfit.

[3] = biological target: T2, human 5-HT1A receptor (Homo sapiens, UniProt P08908); assay: Human 5-HT1A cAMP assay; conditions: for Emax (% of serotonin): cAMP assay, CHO-K1 cells, relative to maximum response of serotonin
T2 construct: expressed in transfected cells; host or cells: CHO-K1
T2 sequence (P08908 1-422): T1 sequence (P08908 1-422)
Protocol: Compound potency (EC50) and efficacy (Max response) against the human 5-HT1A receptor in stably transfected CHO-K1 cells were determined in a GPCR cell-based CAMP assay.
(§4) Cells were seeded in a total volume of 20 μL into white walled, 384-well microplates and incubated at 37° C. overnight before analysis. Prior to testing, cell plating media was exchanged with 10 μL of Assay buffer (HBSS+10 mM HEPES). Briefly, intermediate dilution of sample stocks were performed to generate 4× sample in assay buffer. 5 μL of 4× samples+5 μL of 4× forskolin were added to cells and incubated at 37° C. for 30 minutes (mins). The final assay vehicle concentration was 1%.
as §4, with “sample stocks was performed to” for “sample stocks were performed to”, “generate 4× samples in assay” for “generate 4× sample in assay”, “4× forskolin was added to” for “4× forskolin were added to”, “for 30 mins. The final” for “for 30 minutes (mins). The final”

[4] = cAMP assay with forskolin, stably transfected CHO-K1 cells, 30 min, read-out: EC50

Sequence of human 5-hydroxytryptamine receptor 2A (5-HT2A) (P28223 whole entry): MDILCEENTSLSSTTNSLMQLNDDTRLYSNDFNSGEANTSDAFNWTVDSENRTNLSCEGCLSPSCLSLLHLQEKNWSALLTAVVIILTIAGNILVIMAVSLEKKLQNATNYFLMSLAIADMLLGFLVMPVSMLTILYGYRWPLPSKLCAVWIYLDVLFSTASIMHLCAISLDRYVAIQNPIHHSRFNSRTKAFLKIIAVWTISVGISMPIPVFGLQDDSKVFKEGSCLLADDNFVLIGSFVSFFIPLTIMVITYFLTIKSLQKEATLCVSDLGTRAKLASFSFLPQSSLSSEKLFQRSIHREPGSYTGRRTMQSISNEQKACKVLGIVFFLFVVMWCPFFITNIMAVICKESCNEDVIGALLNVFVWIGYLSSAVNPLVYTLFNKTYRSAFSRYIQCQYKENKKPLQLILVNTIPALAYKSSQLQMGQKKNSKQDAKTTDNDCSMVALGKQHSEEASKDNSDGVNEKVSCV

| SMILES | EC50 [1] [µM] | RFU@10 μM [1] | RFU@10 μM [2] | EC50 [3] [µM] | Emax (% of serotonin) [3] | EC50 [2] [µM] | EC50 [3, 4] [µM] | EC50 ([1]; FLIPR calcium, agonist mode, HTR2A&Gα15-HEK293 cells, read-out: h5-HT2A, EC50) [µM] |
| --- | --- | --- | --- | --- | --- | --- | --- | --- |
| [2H]C([2H])(c1c[nH]c2ccc(OCCCCCN3C(=O)C4CCCCC4C3=O)cc12)[C@H]1CCCN1C([2H])([2H])[2H] (mixture of isomers) [Rac (R) I-248] | 0.054 | 8,240 RFU | 601 RFU |  |  |  |  |  |
| CSc1ccc2[nH]cc(C[C@H]3CCCN3C)c2c1 [(R) I-1, (R)-3-((1-Methylpyrrolidin-2-yl)methyl)-5-(methylthio)-1H-indole] | 0.047 | 5,663 RFU | 3,355 RFU | 0.0111 | 99.41 % of serotonin | 0.581 |  |  |
| COCCN1CCC[C@@H]1Cc1c[nH]c2ccc(OC)cc12 [(R) I-98, (R)-5-Methoxy-3-((1-(2-methoxyethyl)pyrrolidin-2-yl)methyl)-1H-indole] | 0.013 | 8,298 RFU | 1,666 RFU |  | 96.42 % of serotonin | 3.17 | 0.0403 |  |
| [2H]C([2H])(c1c[nH]c2ccc(OCCCCN3C(=O)c4ccccc4C3=O)cc12)[C@H]1CCCN1C([2H])([2H])[2H] [(R) I-244, (R)-2-(4-((3-((1-(Methyl-d3)pyrrolidin-2-yl)methyl-d2)-1H-indol-5-yl)oxy)butyl)isoindoline-1,3-dione] | 0.05 | 7,945 RFU | 616 RFU |  | 99.01 % of serotonin |  | 0.0063 |  |
| [2H]C([2H])(c1c[nH]c2ccc(OCCCCCN3C(=O)c4ccccc4C3=O)cc12)[C@H]1CCCN1C([2H])([2H])[2H] [(R) I-245, (R)-2-(5-((3-((1-(Methyl-d3)pyrrolidin-2-yl)methyl-d2)-1H-indol-5-yl)oxy)pentyl)isoindoline-1,3-dione] | 0.12 | 8,322 RFU | 899 RFU |  | 99.14 % of serotonin |  | 0.0195 |  |
| [2H]C([2H])(c1c[nH]c2ccc(OCCCCCN3C(=O)[C@H]4CCCC[C@H]4C3=O)cc12)[C@H]1CCCN1C([2H])([2H])[2H] [Cis (R) I-248, 2-(5-((3-(((R)-1-(Methyl-d3)pyrrolidin-2-yl)methyl-d2)-1H-indol-5-yl)oxy)pentyl)hexahydro-1H-isoindole-1,3(2H)-dione] |  |  |  |  | 96.76 % of serotonin |  | 0.0527 |  |
| CN(C)CCc1c[nH]c2ccccc12 [DMT] |  | 3,493 RFU | 204 RFU |  | 87.1 % of serotonin |  |  | 0.163 |

Reference: patent US12606543B2, “Indole derivatives as serotonergic agents useful for the treatment of disorders related thereto” (priority 2023, dated 2026)
